# Source: US12497411B2, “Muscarinic acetylcholine receptor subtype 4 antagonists in the treatment of anemia” (COLD SPRING HARBOR LABORATORY, priority 2019, dated 2025)
# pKi: −log10 of the molar value. Where a name gives a salt, the structure may show the parent alone.
# Legend:
# [1] = biological target: T1, human recombinant CHRM3 receptor (Homo sapiens, UniProt P20309); test: Radioligand binding assay, CHRM3; conditions: [3H]4-DAMP (0.2 nM), CHO cell membranes, 60 minutes at room temperature; read-out: Ki M3
# T1 construct: expressed in transfected cells; host or cells: CHO cells (membranes)
# Description: (§1) PD102807 and Compounds A-K at concentrations of 1×10^−9 M, 1×10^−8 M, 1×10^−7 M, 1×10^−6 M, and 1×10^−5 M were tested in standard binding assays with radioligands and cell membranes with receptors. Compound binding was calculated as a percent inhibition of the binding of a radioactively labeled ligand specific for each target, and the Ki values were determined. For CHRM1, the binding assay was performed using [^3H]pirenzepine (2 nM) as a radioligand and membranes of CHO cells with human recombinant CHRM1 receptor. The incubation time was 60 minutes at room temperature. For CHRM2, the binding assay was performed using [^3H]AF-DX 384 (2 nM) as a radioligand and membranes of CHO cells with human recombinant CHRM2 receptor. The incubation time was also 60 minutes at room temperature. For CHRM3, the binding assay was performed using [^3H]4-DAMP (0.2 nM) as a radioligand and membranes of CHO cells with human recombinant CHRM3 receptor. The incubation time was also 60 minutes at room temperature. For CHRM4, the binding assay was performed using [^3H]4-DAMP (0.2 nM) as a radioligand and membranes of CHO cells with human recombinant CHRM4 receptor. The incubation time was also 60 minutes at room temperature. For CHRM5, the binding assay was performed using [^3H]4-DAMP (0.3 nM) as a radioligand and membranes of CHO cells with human recombinant CHRM5 receptor. The incubation time was also 60 minutes at room temperature.
# [2] = biological target: T2, human recombinant CHRM2 receptor (Homo sapiens, UniProt P08172); test: Radioligand binding assay, CHRM2; conditions: [3H]AF-DX 384 (2 nM), CHO cell membranes, 60 minutes at room temperature; read-out: Ki M2
# T2 construct: expressed in transfected cells; host or cells: CHO cells (membranes)
# T2 sequence (P08172 1-466): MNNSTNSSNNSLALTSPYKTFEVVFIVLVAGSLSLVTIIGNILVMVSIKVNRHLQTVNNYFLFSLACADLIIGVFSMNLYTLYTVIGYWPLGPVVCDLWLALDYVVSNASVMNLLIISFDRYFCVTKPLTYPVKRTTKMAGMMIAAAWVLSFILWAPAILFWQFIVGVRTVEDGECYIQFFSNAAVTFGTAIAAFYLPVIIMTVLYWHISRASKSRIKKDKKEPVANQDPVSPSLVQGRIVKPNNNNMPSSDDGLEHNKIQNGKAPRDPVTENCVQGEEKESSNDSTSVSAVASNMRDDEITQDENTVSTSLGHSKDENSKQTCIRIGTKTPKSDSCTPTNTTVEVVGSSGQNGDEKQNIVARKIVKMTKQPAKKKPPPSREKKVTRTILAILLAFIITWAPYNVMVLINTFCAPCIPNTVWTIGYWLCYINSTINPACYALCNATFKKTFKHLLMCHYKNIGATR
# Description: as §1
# CHRM4 = biological target: T3, CHRM4 (Homo sapiens, UniProt P08173); test: Radioligand binding assay, CHRM4; parameters: expressed in transfected cells; host or cells: CHO cells (membranes); conditions: [3H]4-DAMP (0.2 nM), CHO cell membranes, 60 minutes at room temperature; read-out: Ki M4
# T3 sequence (P08173 1-479): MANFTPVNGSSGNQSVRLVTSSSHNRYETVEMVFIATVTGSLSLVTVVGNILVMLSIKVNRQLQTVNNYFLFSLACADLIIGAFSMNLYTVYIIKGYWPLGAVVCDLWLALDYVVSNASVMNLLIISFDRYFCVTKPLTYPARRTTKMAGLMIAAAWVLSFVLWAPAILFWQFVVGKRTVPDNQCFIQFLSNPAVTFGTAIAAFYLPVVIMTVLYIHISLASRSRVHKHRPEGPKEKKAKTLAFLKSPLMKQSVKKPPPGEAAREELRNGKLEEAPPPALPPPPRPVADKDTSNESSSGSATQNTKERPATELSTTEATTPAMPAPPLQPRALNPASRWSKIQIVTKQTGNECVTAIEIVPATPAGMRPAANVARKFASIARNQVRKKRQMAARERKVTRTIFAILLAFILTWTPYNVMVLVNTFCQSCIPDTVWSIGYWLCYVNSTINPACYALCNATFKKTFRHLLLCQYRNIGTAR
# Description: as §1
# Mouse BFU-Es = test: Primary mouse BFU-E culture assay (cell expansion); format: cell-based; conditions: for potency in stimulating BFU-E expansion: mouse primary cell BFU-E culture assay
# Description: Primary mouse BFU-Es were isolated from mouse embryonic day 14.5 (E14.5) fetal liver and cultured in StemSpan serum-free expansion medium, and the numbers of cells formed were counted during culture. BFU-Es were infected with either viruses encoding control shRNA or viruses encoding shRNAs targeting Chrm4, and numbers of GFP+ cells formed during culture were counted. DMSO or 25 mg/kg oxyphenonium bromide was intraperitoneally injected into the hemolysis mouse model, Mx1-cre Srsf2 P95H/WT MDS mouse model, and aging mouse model. Complete blood count (CBC) was performed after compound injection. CREB ChIP-Seq was performed on BFU-Es after culture with 100 μM oxyphenonium bromide for 45 minutes. RNA-Seq was performed in BFU-Es after being cultured with DMSO or oxyphenonium bromide for 3 days.
# BFU-Es were isolated from mouse embryonic day 14.5 fetal liver using fluorescence-activated cell sorting (FACS) method previously described (Flygare et al., Blood 117, 3435-3444 (2011)). BFU-Es were cultured in StemSpan SFEM II medium containing rmSCF (100 ng/ml), EPO (2 U/ml), rmIGF-1 (40 ng/ml), dexamethasone (1 nmol/ml or 10 nmol/ml), oxyphenonium bromide ([…]), and orphenadrine citrate (1 μmol/ml).
# BFU-Es were isolated from mouse embryonic day 14.5 fetal liver using fluorescence-activated cell sorting (FACS) method. BFU-Es were cultured in StemSpan SFEM II medium containing rmSCF (100 ng/ml), EPO (2 U/ml), rmIGF-1 (40 ng/ml), dexamethasone (1 nM), together with either DMSO, PCS1055 (5 nM), or PD102807 (3 nM). Numbers of cell formed were counted during in vitro culture.
# FIGS. 7 and 8 show the results of the primary BFU-E culture assay. […] Highly purified BFU-Es were isolated as lin-Ter-119-CD16/CD32-Sca-1-CD41-c-Kit+CD71/Cd24a^10% low population using the fluorescence-activated cell sorting (FACS) method. BFU-Es were cultured in medium containing rmSCF, EPO, and rmIGF-1, in the presence of PD102807 or Compounds A-K at indicated concentrations.
# [3] = biological target: T4, human recombinant CHRM1 receptor (Homo sapiens, UniProt P11229); test: Radioligand binding assay, CHRM1; conditions: [3H]pirenzepine (2 nM), CHO cell membranes, 60 minutes at room temperature; read-out: Ki M1
# T4 construct: expressed in transfected cells; host or cells: CHO cells (membranes)
# T4 sequence (P11229 1-460): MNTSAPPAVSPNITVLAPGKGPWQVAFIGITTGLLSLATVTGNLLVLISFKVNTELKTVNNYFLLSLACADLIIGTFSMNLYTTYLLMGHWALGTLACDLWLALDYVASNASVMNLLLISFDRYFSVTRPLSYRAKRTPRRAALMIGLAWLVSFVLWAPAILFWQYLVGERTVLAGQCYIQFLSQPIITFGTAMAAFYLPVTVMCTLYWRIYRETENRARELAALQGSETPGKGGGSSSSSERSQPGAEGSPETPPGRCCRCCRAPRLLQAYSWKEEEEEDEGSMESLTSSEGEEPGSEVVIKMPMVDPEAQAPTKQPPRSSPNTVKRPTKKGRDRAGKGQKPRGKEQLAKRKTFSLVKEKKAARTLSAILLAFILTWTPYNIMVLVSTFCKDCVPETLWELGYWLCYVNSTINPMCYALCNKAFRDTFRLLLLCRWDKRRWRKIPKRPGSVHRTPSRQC
# Description: as §1
# [4] = tested on: PHZ induced hemolytic anemia in C57bl/6 mice; test: PHZ induced hemolytic anemia mouse model, CBC; format: in vivo; conditions: subcutaneous injection; B 1.5, 3 or 5 mg/kg; I 0.5, 0.7 or 1 mg/kg; 60 mg/kg phenylhydrazine
# Description: Animal experiments were conducted in the Cold Spring Harbor Laboratory Animal Shared Resource in accordance with Institutional Animal Care and Use Committee-approved procedures. 4-6 weeks old C57bl/6 mice, purchased from Jackson Laboratory and randomly distributed into compound and control treatment groups, were given through oral delivery of PCS1055 (50 mg/kg or 100 mg/kg) twice per day or PD102807 (50 mg/kg or 100 mg/kg) once per day everyday for 3 days. On day 3, mice were intraperitoneally injected with 60 mg/kg PHZ. Mice were then given through oral delivery of PD102807 (50 mg/kg or 100 mg/kg) once per day every day for 2 days. Peripheral blood samples were collected retro-orbitally on day 6 using heparinized capillary tubes in blood collection tubes with K2-EDTA. CBC was performed using Hemavet 950. […] C57bl/6 mice were injected with 60 mg/kg phenylhydrazine to induce hemolysis. Mice were delivered with either vehicle control or Compound A or B (30 mg/kg or 100 mg/kg). Peripheral blood samples were collected retro-orbitally using heparinized capillary tubes into blood collection tubes with K2-EDTA. Complete blood counting was performed using Hemavet 950. Hematocrit (HCT), red blood cell (RBC) and hemoglobin (Hb) values are shown. […] C57bl/6 mice were injected with 60 mg/kg phenylhydrazine to induce hemolysis. Mice were delivered with subcutaneous injection with either vehicle control or Compound B (1.5 mg/kg, 3 mg/kg, or 5 mg/kg) or I (0.5 mg/kg, 0.7 mg/kg, or 1 mg/kg). Peripheral blood samples were collected retro-orbitally using heparinized capillary tubes into blood collection tubes with K2-EDTA. Complete blood counting was performed using Hemavet 950. Hematocrit (HCT), red blood cell (RBC) and hemoglobin (Hb) values are shown.
# [5] = biological target: T5, human recombinant CHRM5 receptor (Homo sapiens, UniProt P08912); test: Radioligand binding assay, CHRM5; conditions: [3H]4-DAMP (0.3 nM), CHO cell membranes, 60 minutes at room temperature; read-out: Ki M5
# T5 construct: expressed in transfected cells; host or cells: CHO cells (membranes)
# T5 sequence (P08912 1-532): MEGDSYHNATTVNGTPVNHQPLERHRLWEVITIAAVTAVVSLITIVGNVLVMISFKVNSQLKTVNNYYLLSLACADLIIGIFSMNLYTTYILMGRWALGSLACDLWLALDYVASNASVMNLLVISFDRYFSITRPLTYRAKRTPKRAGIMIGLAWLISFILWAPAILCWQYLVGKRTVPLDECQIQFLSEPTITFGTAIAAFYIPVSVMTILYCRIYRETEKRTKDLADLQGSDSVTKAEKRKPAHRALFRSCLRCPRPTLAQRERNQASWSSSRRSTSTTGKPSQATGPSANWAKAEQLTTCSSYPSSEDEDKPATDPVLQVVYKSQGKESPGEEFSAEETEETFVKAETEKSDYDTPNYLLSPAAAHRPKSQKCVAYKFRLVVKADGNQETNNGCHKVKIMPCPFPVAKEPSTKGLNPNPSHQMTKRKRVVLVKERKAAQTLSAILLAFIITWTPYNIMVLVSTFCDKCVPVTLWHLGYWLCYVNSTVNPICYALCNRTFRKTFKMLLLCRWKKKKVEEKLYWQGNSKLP
# Description: as §1
# T1 sequence (P20309 whole entry): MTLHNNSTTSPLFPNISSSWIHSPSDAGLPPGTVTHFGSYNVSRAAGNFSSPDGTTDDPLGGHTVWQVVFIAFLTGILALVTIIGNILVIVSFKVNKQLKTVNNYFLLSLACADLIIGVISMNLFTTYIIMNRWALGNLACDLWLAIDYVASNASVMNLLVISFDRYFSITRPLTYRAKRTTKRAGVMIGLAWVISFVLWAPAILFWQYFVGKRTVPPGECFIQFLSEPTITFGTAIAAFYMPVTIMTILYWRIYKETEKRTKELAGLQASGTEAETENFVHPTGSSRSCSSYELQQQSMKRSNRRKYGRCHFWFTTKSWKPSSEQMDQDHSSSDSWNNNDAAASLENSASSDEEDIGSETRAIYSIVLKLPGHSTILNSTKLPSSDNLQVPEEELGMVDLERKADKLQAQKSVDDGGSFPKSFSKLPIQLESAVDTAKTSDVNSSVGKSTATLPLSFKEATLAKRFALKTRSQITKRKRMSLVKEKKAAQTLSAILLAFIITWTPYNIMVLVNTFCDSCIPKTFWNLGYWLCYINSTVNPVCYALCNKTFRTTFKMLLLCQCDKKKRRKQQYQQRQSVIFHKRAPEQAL
Compound,pKi [1],pKi [2],pKi (CHRM4),potency in stimulating BFU-E expansion (Mouse BFU-Es),BFU-E expansion (test of GPCR agonists and antagonists) (Mouse BFU-Es; mouse BFU-E culture),"fold cell expansion (Mouse BFU-Es; 5 μM KT5720 (with 3 nM PD102807), day 9, vs untreated)",pKi [3],"treatment of anemia in vivo (HCT, RBC, Hb) [4]",pKi [5]
CCOC(=O)c1c(C)n(C)c2ccc(OC)c(CN3CCc4cc(OC)ccc4C3)c12 [F],5.41,5.41,6.02,slightly less potent than the others,,,,,
Cc1ccccc1C(OCCN(C)C)c1ccccc1 (centres unmarked) [orphenadrine citrate],,,,,triggered BFU-E expansion,,,,
CCCCCCOC(=O)[C@]1(O)C[C@@H]2O[C@@]1(C)n1c3ccccc3c3c4c(c5c6ccccc6n2c5c31)C(=O)NC4 [KT5720],,,,,,significantly reduced fold cell expansion,,,
"CCOC(=O)c1c(C)n(C)c2ccc(O)c(CN3CCc4cc(OC)ccc4C3)c12 [Compound D, Ethyl 5-hydroxy-4-((6-methoxy-3,4-dihydroisoquinolin-2(1H)-yl)methyl)-1,2-dimethyl-1H-indole-3-carboxylate]",6.13,7.23,7.38,,,,6.55,,
"CCOC(=O)c1c(C)[nH]c2ccc3c(c12)C[N+]1(C)CCc2cc(OC)ccc2C1O3 (single isomer, unassigned) [Compound B, 1-(ethoxycarbonyl)-9-methoxy-2,13-dimethyl-3,6a,11,12,13,14-hexahydroindolo[4′,5′:5,6][1,3]oxazino[2,3-a]isoquinolin-13-ium Iodide]",,,5.37,slightly less potent than the others,,,,treat anemia in vivo,
CCOC(=O)c1c(C)n(C)c2cc(CN3CCc4cc(OC)ccc4C3)c(OC)cc12 [J],5.77,6.12,8.05,,,,5.89,,
"CCOC(=O)c1c(C)n(C)c2ccc3c(c12)CN1CCc2cc(OC)ccc2C1O3 (centres unmarked) [Compound C, Ethyl 9-methoxy-2,3-dimethyl-3,6a,11,14-tetrahydro-12H-indolo[4′,5′:5,6][1,3]oxazino[2,3-a]isoquinoline-1-carboxylate]",6.22,6.07,8.34,,,,5.28,,
"CCOC(=O)c1c(C)[nH]c2ccc(OC)c(CN3CCc4cc(OC)ccc4C3)c12 [Compound E, ethyl 5-methoxy-4-((6-methoxy-3,4-dihydroisoquinolin-2(1H)-yl)methyl)-2-methyl-1H-indole-3-carboxylate]",,5.59,5.82,,,,5.07,,
CCOC(=O)c1c(C)n(C)c2cc(C[N+]3(C)CCc4cc(OC)ccc4C3)c(OC)cc12 (centres unmarked) [Compound K],6.40,7.00,7.27,,,,7.27,,6.01
